Test: pKa, charge and solubility of the amine groups of the polymer

Substance: Poly-L-lysine
- pKa value of the amine groups: approximately 10.5
